In general, IC50 refers to the midpoint of a concentration-inhibition curve.

Here are results for nine molecules from EP4385984A1, “PYRIDINE-N-OXIDES AS INHIBITORS OF NAV1.8” (Grünenthal GmbH, priority 2022, dated 2024).

T1 sequence (Q9Y5Y9 whole entry): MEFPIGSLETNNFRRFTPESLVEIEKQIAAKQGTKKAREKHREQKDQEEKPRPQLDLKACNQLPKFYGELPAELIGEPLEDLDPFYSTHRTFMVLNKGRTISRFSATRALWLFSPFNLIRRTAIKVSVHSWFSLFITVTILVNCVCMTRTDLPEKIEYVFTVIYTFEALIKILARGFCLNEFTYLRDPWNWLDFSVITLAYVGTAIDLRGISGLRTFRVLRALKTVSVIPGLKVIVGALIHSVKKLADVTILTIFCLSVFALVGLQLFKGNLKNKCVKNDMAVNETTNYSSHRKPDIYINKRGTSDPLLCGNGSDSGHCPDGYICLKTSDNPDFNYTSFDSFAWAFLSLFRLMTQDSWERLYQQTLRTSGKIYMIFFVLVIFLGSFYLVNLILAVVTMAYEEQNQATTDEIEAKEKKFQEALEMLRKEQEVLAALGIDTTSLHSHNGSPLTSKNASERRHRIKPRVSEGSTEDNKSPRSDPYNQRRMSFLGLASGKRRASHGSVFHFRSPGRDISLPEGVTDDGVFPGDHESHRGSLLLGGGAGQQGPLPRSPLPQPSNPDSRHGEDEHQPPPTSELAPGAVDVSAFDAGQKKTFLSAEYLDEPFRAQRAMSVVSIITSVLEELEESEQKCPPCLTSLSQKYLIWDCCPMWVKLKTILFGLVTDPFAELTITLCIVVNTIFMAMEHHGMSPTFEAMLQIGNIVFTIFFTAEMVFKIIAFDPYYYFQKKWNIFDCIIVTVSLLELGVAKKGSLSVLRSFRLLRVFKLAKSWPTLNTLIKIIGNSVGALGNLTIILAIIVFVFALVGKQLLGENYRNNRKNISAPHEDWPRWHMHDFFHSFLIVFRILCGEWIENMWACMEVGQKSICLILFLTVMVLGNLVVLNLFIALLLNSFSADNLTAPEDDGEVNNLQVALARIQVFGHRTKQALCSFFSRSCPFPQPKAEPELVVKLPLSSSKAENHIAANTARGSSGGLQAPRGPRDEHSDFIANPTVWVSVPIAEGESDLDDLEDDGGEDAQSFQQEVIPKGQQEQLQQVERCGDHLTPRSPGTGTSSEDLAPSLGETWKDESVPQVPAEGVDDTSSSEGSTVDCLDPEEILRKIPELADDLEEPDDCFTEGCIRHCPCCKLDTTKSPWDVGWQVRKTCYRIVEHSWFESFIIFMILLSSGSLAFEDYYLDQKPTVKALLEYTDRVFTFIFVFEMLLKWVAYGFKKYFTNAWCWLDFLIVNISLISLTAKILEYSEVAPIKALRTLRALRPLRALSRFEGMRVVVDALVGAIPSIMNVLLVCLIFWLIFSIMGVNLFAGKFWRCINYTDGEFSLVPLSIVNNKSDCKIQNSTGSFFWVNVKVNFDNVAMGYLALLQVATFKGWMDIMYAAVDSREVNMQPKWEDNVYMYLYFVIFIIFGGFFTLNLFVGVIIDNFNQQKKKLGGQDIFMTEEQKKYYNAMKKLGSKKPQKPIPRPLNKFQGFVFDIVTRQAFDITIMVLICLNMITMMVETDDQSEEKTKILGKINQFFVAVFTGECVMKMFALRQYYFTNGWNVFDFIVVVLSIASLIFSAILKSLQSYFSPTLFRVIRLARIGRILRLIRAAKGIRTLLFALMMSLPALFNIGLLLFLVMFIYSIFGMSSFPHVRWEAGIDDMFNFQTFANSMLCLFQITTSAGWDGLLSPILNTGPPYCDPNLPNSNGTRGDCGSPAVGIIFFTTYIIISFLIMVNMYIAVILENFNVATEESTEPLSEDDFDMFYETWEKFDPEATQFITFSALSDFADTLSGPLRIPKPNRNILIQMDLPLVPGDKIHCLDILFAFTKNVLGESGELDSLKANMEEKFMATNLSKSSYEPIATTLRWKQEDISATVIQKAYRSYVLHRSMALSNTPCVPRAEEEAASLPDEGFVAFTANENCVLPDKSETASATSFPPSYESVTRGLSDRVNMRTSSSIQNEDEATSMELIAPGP

The assay concerns the target T1, human NaV1.8 (Homo sapiens, UniProt Q9Y5Y9).
T1 construct: expressed in transfected cells; host or cells: HEK
Nature of the assay: Electrophysiology: automated whole-cell voltage-clamp (patch clamp) recordings of sodium currents, Qube384. Format: cell-based. The settings on record: HEK-NaV1.8 (NM 006514.1) with b3 recombinant cell line, multi hole plates, ambient room temperature, read-out: Potency category (human NaV1.8 IC50). Here is the method:
The following NaV1.8 recombinant cell line was used for recordings: HEK-NaV1.8 (NM 006514.1) with b3 (NM_018400.3).
Sodium currents were measured using the patch clamp technique in the whole-cell configuration using the Qube384 (Sophion A/S, Copenhagen, Denmark) automated voltage clamp platform. "Multi hole" plates were used for the cell line expressing NaV1.8 while "single hole" plates were used for the recombinant cell lines expressing the other subtypes. Appropriate filters (for minimum seal resistance and minimum current size) and series resistance compensation (for high quality sodium channel recordings) were applied. Data was collected at ambient room temperature.
The recording […] solution contained (in mM): NaCl 145 mM, KCl 4 mM, CaCl2 2 mM, MgCh 1 mM, HEPES 10 mM, Glucose 10 mM, pH 7.4 (NaOH). The […] recording solution contained (in mM): CsF 120 mM, CsCl 20 mM, NaCl 10 mM, EGTA 10 mM, HEPES 10 mM, pH 7.2 (CsOH). Currents were recorded at 25 kHz sampling frequency and filtered at 5 kHz. Series resistance compensation was applied at 65%. Vehicle (VEH) is the control condition where cells are exposed to 0.3 % DMSO without compound. All runs include VEH controls being exposed to the same voltage protocols to assess non-compound related phenomena such as run down and then used to isolate compound dependent effects on currents.
To check for state-dependence inhibition, the following voltage-sequence was applied every 20 seconds: From a resting membrane potential of-120 mV, the first test pulse (P1; 20 ms to -10 mV) was applied to check for channels in the Resting State followed by a brief recovery (20 ms to -120 mV), then holding the membrane voltage to V1/2 (4 seconds at voltage to obtain half the channel at Rest and half Inactivated) with a subsequent second test pulse (P2; 20 ms to -10 mV) to check for channels in the Inactivated State, followed by another brief recovery (20 ms to -120 mV) and a final third test pulse (P3; 20 ms to -10 mV) to check for recovered channels.
To check for frequency-dependent inhibition, a 10 Hz protocol and a 20 Hz protocol were applied; namely,
From a resting membrane potential of -120 mV, 40-pulses (10 ms to -10 mV) was applied at 10 Hz (at 100 ms between pulses) and then at 20 Hz (at 50 ms between pulses).
Each parameter was recorded (P1, P2, P3, P40 from 10Hz and P40 from 20Hz) during a control period (lasting ~ 5 minutes) when establishing the baseline and during compound period (lasting ~ 12 minutes) when test compound (or vehicle) was applied. For each parameter, the value at the end of the compound period was normalized to the vehicle baseline; as follows Normalized Inhibition(NormCPD) = (CPD Valueend CPD period)/(VEH Valueend Control Period) [formula]
To adjust for any variance in the Na^+ current signal during the compound period (owing to cumulative inactivation independent of compound or shifts in biophysics over time), a dedicated segment of the recording wells in each 384 plate were dedicated to having only vehicle exposure. These vehicle-only recordings were used to correct for any apparent "run-up" or "run-down" in the experiment. Normalized Inhibition(NormVEH) = (VEH Valueend CPD period)/(VEH Valueend Control Period) [formula]
The adjusted inhibition was calculated as follows: % Inhibitioncorrected = 100 × (NormCPD −NormVEH)/(100−NormVEH) [formula]
Percent inhibition was determined and IC50 values were calculated using a 4 parameter logistic model within XLFit Software (IDBS, Boston MA): %Inhibitioncorrected = A + ((B−A))/((1 + (((x)/(C)))^D) [formula] where A and B are the maximal and minimum inhibition respectively, C is the IC50 concentration and D is the (Hill) slope.
Background: In patch-clamp work, channel activity is measured electrically.
Turning to `Cc1c(C(C)(F)F)nn(CC2(C)CCC(F)(F)C2)c1C(=O)Nc1cc[n+]([O-])c(C(N)=O)c1` (single isomer, unassigned) [Example 5a, 2-carbamoyl-4-(1-((3,3-difluoro-1-methylcyclopentyl)methyl)-3-(1,1-difluoroethyl)-4-methyl-1H-pyrazole-5-carboxamido)pyridine 1-oxide], the IC50 was at most 0.1 µM. As for `Cc1c(C(C)(F)F)nn(C[C@@H]2CCC(F)(F)C2)c1C(=O)Nc1cc[n+]([O-])c(C(N)=O)c1` [Example 1a, (R)-2-Carbamoyl-4-(1-((3,3-difluorocyclopentyl)methyl)-3-(1,1-difluoroethyl)-4-methyl-1H-pyrazole-5-carboxamido)pyridine 1-oxide], the figure is 0.1 to 1 µM; as for `Cc1c(C(C)(F)F)nn(C[C@H]2CCC(F)(F)C2)c1C(=O)Nc1cc[n+]([O-])c(C(N)=O)c1` [Example 1b, (S)-2-Carbamoyl-4-(1-((3,3-difluorocyclopentyl)methyl)-3-(1,1-difluoroethyl)-4-methyl-1H-pyrazole-5-carboxamido)pyridine 1-oxide], 0.1 to 1 µM. Take `Cc1c(C(C)(F)F)nn(CC2CC(F)(F)C2)c1C(=O)Nc1cc[n+]([O-])c(C(N)=O)c1` [Example 3, 2-carbamoyl-4-(1-((3,3-difluorocyclobutyl)methyl)-3-(1,1-difluoroethyl)-4-methyl-1H-pyrazole-5-carboxamido)pyridine 1-oxide]: the half-inhibitory concentration (IC50) lay within 0.1 to 1 µM.

For the molecule `Cc1c(C(C)(F)F)nn(CC2(C)CC(F)(F)C2)c1C(=O)Nc1cc[n+]([O-])c(C(N)=O)c1` [Example 4, 2-carbamoyl-4-(1-((3,3-difluoro-1-methylcyclobutyl)methyl)-3-(1,1-difluoroethyl)-4-methyl-1H-pyrazole-5-carboxamido)pyridine 1-oxide], the IC50 was at most 0.1 µM. Turning to `CC(F)(F)c1nn(CC2CC(F)(F)C2)c(C(=O)Nc2ccnc(C(=O)O)c2)c1C(F)(F)F` [Example 7, 4-(1-((3,3-difluorocyclobutyl)methyl)-3-(1,1-difluoroethyl)-4-(trifluoromethyl)-1H-pyrazole-5-carboxamido)picolinic acid], the IC50 was 1 to 10 µM. For `CC(F)(F)c1nn(CC2CC(F)(F)C2)c(C(=O)Nc2ccc(C(=O)O)nc2)c1C(F)(F)F` [Example 8, 5-(1-((3,3-difluorocyclobutyl)methyl)-3-(1,1-difluoroethyl)-4-(trifluoromethyl)-1H-pyrazole-5-carboxamido)picolinic acid], the IC50 lay within 0.1 to 1 µM. As for `O=C(O)c1cc(NC(=O)c2c(C(F)(F)F)c(C3CC3)nn2CC2CCC(F)(F)CC2)ccn1` [Example 9, 4-(3-cyclopropyl-1-((4,4-difluorocyclohexyl)methyl)-4-(trifluoromethyl)-1H-pyrazole-5-carboxamido)picolinic acid], the IC50 is 0.1 to 1 µM.

With `CP(C)(=O)c1cc(NC(=O)c2c(C(F)(F)F)cnn2CC2CCCCC2)ccn1` [Example 10, 1-(cyclohexylmethyl)-N-(2-(dimethylphosphoryl)pyridin-4-yl)-4-(trifluoromethyl)-1H-pyrazole-5-carboxamide], the 50% inhibitory concentration (IC50) lay in the range of 0.1 to 1 µM.
